Source: ChEMBL document CHEMBL3430912, “GSK Tres Cantos Anti-Kinetoplastid Screening (TCAKS) Data”
pIC50: −log10 of the molar value.

Assays:
Trypanosoma cruzi [1] = experiment: GSK_TCAKS: pIC50 Trypanosoma cruzi viability assay using beta-GAL activity. This assay was run at single shot at 5uM compound concentration per well. The biological reagents consisted of NIH-3T3 host cells and trypomastigotes parasitic cells; both cell types were set to a 3.3 * 10^5 cells/mL dilution in assay DMEM by means of a CASY cell counter device using a 60um capillary. 6 uL of the mixture were dispensed per well (about 1 * 10^3 host-cells and 1 * 10^3 parasites) with a Multidrop Combi dispenser. […] In all wells, the percentage of DMSO never exceeded 0.5%. Plates incubated for four days at 37C, 5% CO2. The substrate used for the assay fluorescence intensity (FLINT) readout was resorufin-beta-D-galactopiranoside (Sigma-Aldrich) at 5uM per well. It was diluted in PBS supplemented with the soft detergent Igepal (Fluka).; format: functional, organism-based, Mus musculus; conditions: Tulahuen, NIH3T3
Trypanosoma cruzi [2] = experiment: (§1) GSK_TCAKS: pIC50 Trypanosoma cruzi Imaging: Infected Cells. […] Cells were then washed once with PBS before infection. T. cruzi trypomastigotes, collected at days 5 to 8 after infection from LLC-MK2 parasite infected cultures, were allowed to swim out for 4h at 37C from a centrifuged pellet (2,500 rpm/10 min/room temperature). Trypomastigotes were then collected and counted in a CASY Cell Counter. Trypomastigotes, in supplemented DMEM, were added to H9c2 cultures in a multiplicity of infection of 1 and incubated for 18 h. Cells were washed once with PBS before incubation of the infected H9c2 monolayer with trypsin (Life-Technologies) to detach cells from the flask. Cells were counted in a CASY Cell Counter using a 150 um capillary and their density set at 5 * 10^4 cells per mL in supplemented assay DMEM. Infected H9c2 were dispensed into 384-well poly-lysine coated assay plates at 50uL per well using a Multidrop Combi dispenser. After seeding them, the plates were incubated at 37C, 5% CO2 for 72h. Cultures were then fixed and stained by addition of 50 uL of a solution containing 8% formaldehyde and 4 uM DRAQ5 DNA dye (BioStatus, UK) per well. […] Five images were collected per well for reliable statistical analysis. Automated image analysis was performed with a script developed on Acapella High Content Imaging and Analysis Software (PerkinElmer). Output: percentage of infected cells per well as a second infection marker.; format: functional, organism-based, Rattus norvegicus; conditions: H9c2, 4 h
Trypanosoma cruzi [3] = experiment: GSK_TCAKS: pIC50 Trypanosoma cruzi Imaging: Amastigotes/Cell. […] Cells were then washed once with PBS before infection. T. cruzi trypomastigotes, collected at days 5 to 8 after infection from LLC-MK2 parasite infected cultures, were allowed to swim out for 4h at 37C from a centrifuged pellet (2,500 rpm/10 min/room temperature). Trypomastigotes were then collected and counted in a CASY Cell Counter. Trypomastigotes, in supplemented DMEM, were added to H9c2 cultures in a multiplicity of infection of 1 and incubated for 18 h. Cells were washed once with PBS before incubation of the infected H9c2 monolayer with trypsin (Life-Technologies) to detach cells from the flask. Cells were counted in a CASY Cell Counter using a 150 um capillary and their density set at 5 * 10^4 cells per mL in supplemented assay DMEM. Infected H9c2 were dispensed into 384-well poly-lysine coated assay plates at 50uL per well using a Multidrop Combi dispenser. After seeding them, the plates were incubated at 37C, 5% CO2 for 72h. Cultures were then fixed and stained by addition of 50 uL of a solution containing 8% formaldehyde and 4 uM DRAQ5 DNA dye (BioStatus, UK) per well. […] Five images were collected per well for reliable statistical analysis. Automated image analysis was performed with a script developed on Acapella High Content Imaging and Analysis Software (PerkinElmer). Output: number of amastigotes per cell as infection level measurement.; format: functional, organism-based, Rattus norvegicus; conditions: H9c2, 4 h
Trypanosoma cruzi [4] = experiment: as §1, with “H2C9” for “Trypanosoma cruzi”, “H9c2 Host Cardiomyocytes.” for “Infected Cells.”, “Number” for “percentage”, “H9c2 Host Cardiomyocytes nuclei to determine drug-related cytotoxicity.” for “infected cells per well as a second infection marker.”; format: functional, organism-based, Rattus norvegicus; conditions: H9c2, 4 h
Leishmania donovani [5] = experiment: GSK_TCAKS: pIC50 Leishmania donovani viability assay using fluorescence intensity. Assay plates (1536-well) were prepared by adding 30nL per well of compound. For single shot assay, the final compound concentration was 5uM. […] Briefly, eGFP LdBOB axenic amastigotes were harvested, fixed and counted in a CASY cell counter (Roche-Applied Science). A final concentration of 1.5 * 10^5 cells per well were prepared in amastigote media containing 500 U/mL penicillin/streptomycin (Invitrogen) and 6uL was dispensed to each experimental well using a Multidrop Combi dispenser (Thermo Scientific). 6uL of assay media was dispensed to control columns used as reference for 100% compound response. Following incubation for 72 h at 37C, 5% CO2, 2 uL of resazurin was added to each well at a final concentration of 0.5 mM in phosphate buffered saline (PBS) with IGEPAL (Sigma-Aldrich), 0.05% (v/v).; format: functional, organism-based
Leishmania donovani [6] = experiment: GSK_TCAKS: pIC50 Leishmania donovani Imaging: Infected Macrophages. Assay plates (384-well) were prepared by adding 250nL of compound to each well. For single shot assay, the final compound concentration was 5 uM. […] Automated image analysis was performed with a script developed on Acapella High Content Imaging and Analysis Software (PerkinElmer). Output: Percent of infected macrophage cells were reported for each well.; format: functional, organism-based, Homo sapiens; conditions: THP-1
Leishmania donovani [7] = experiment: GSK_TCAKS: pIC50 Leishmania donovani Imaging: Amastigotes/Macrophages. Assay plates (384-well) were prepared by adding 250nL of compound to each well. For single shot assay, the final compound concentration was 5 uM. […] Automated image analysis was performed with a script developed on Acapella High Content Imaging and Analysis Software (PerkinElmer). Output: Average number of amastigotes per macrophage cell were reported for each well.; format: functional, organism-based, Homo sapiens; conditions: THP-1
Leishmania donovani [8] = experiment: GSK_TCAKS: pIC50 Leishmania donovani Imaging: THP-1 Host Macrophages. Assay plates (384-well) were prepared by adding 250nL of compound to each well. For single shot assay, the final compound concentration was 5 uM. […] Automated image analysis was performed with a script developed on Acapella High Content Imaging and Analysis Software (PerkinElmer). Output: THP-1 cell count were reported for each well.; format: functional, organism-based, Homo sapiens
[9] = tested on: Trypanosoma brucei brucei; experiment: GSK_TCAKS: pIC50 Trypanosoma brucei viability assay using fluorescence intensity. Assay plates (1536-well) were prepared by dispensing 25nL of compound solution per well using an Echo acoustic dispenser (Labcyte).; format: functional, organism-based; conditions: Lister 427, 2 h
[10] = tested on: Trypanosoma brucei brucei; experiment: GSK_TCAKS: pIC50 Trypanosoma brucei viability assay using luminiscence. Assay plates (1536-well) were prepared. T. brucei cultures were harvested and counted in a CASY cell counter. A parasite suspension was prepared at a final concentration of 5 * 10^4 cells/mL in complete HMI9 medium and 6uL was dispensed to all wells containing compounds using a Multidrop Combi dispenser. 6uL of HMI9 media with 0.4% DMSO were dispensed to control columns. Plates were incubated for 24 h at 37C, 5% CO2 then tempered for 10 min at room temperature. ATP content was quantified by adding 4 uL of CellTiter-Glo Reagent (Promega) according to the manufacturer's instructions. Luminescence was measured using a ViewLux.; format: functional, organism-based; conditions: Lister 427, CASY
[11] = GSK_TCAKS: pIC50 HepG2 human cell line viability assay using luminiscence. […] Seeding density was checked to ensure that new mono-layers were not more than 50% confluent at the time of harvesting. Cell suspension was added to 500 mL of the same medium at a final density of 1.2 * 10^5 cells/mL. This cell suspension was dispensed (25 uL, 3000 cells per well) into 384-well clear-bottom plates using a Multidrop Combi dispenser. Prior to addition of the cell suspension, the screening compounds (250 nL) were pre-dispensed into the plates with an Echo liquid handler. Plates were incubated for 48 h at 37C, 5% CO2. After incubation, plates equilibrated at room temperature for 30 min before proceeding to develop the luminescent signal. The signal developer, CellTiter-Glo Reagent, was allowed to equilibrate at room temperature for 30 min and added to the plates (25uL per well) using a Multidrop Combi dispenser. Plates were left for 10 min at room temperature for stabilization and then read using a ViewLux.; format: toxicity, cell-based
NIH3T3 = experiment: GSK_TCAKS: pIC50 NIH 3T3 cell line viability assay using luminiscence. Tissue culture surface treated assay plates (1536-well) were used. […] The 100% cells survival control was determined exposing the host-cells to a 0.5% DMSO concentration, whereas the 100% toxicity control was achieved by seeding the cells in presence of Amphotericin B at 50uM. Plates were incubated for four days at 37C, 5% CO2. The assay readout was developed by addition of 5uL of CellTiter-Glo Reagent following the manufacturer's instructions. Luminiscence was measured using a ViewLux.; format: functional, cell-based; conditions: Mus musculus, NIH3T3, 96 h
[12] = target: Sterol 14-alpha demethylase (Trypanosoma cruzi (strain CL Brener), UniProt Q7Z1V1); experiment: GSK_TCAKS: pIC50 CYP51 from Trypanosoma cruzi.; format: functional
Sequence of Sterol 14-alpha demethylase (Q7Z1V1 whole entry): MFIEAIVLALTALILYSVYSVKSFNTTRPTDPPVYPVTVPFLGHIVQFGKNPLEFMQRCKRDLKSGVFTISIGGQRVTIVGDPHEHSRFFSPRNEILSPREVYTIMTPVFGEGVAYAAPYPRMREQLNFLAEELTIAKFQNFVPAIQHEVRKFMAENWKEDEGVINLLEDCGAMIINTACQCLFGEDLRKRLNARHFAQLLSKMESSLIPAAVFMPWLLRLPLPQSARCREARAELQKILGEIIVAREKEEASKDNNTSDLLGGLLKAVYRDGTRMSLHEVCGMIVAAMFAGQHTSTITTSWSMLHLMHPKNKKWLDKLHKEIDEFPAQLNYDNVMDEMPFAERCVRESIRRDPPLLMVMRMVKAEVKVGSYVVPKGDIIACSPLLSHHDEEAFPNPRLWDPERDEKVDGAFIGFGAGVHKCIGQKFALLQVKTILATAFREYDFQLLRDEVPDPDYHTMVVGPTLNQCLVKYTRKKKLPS

Structure (SMILES)	pIC50 (Trypanosoma cruzi [1])	pIC50 (Trypanosoma cruzi [2])	pIC50 (Trypanosoma cruzi [3])	pIC50 (Trypanosoma cruzi [4])	pIC50 (Leishmania donovani [5])	pIC50 (Leishmania donovani [6])	pIC50 (Leishmania donovani [7])	pIC50 (Leishmania donovani [8])	pIC50 [9]	pIC50 [10]	IC50 at 48 h [11] [µM]	pIC50 (NIH3T3)	pIC50 [12]
CCCN(Cc1ccc(OC)c(OC)c1)Cc1cc(=O)c2c(C)cc(C)cc2[nH]1	5.70	5.70	6.30	< 4.30	4.70	4.60	4.70	5.30	4.60	< 4.40	63.1	4.50	< 4.00
O=C1CSC(c2cccnc2)N1c1ccc(Cl)cc1Cl (stereo not given)	7.15	6.60	6.80	< 4.30	5.30	< 4.30	< 4.30	< 4.30	< 4.40	< 4.40	> 100	< 4.30	6.80
Cc1ccc2nc(N(Cc3cccnc3)C(=O)CCc3ccccc3)sc2c1	7.40	7.40	7.50	< 4.30	4.60	< 4.30	< 4.30	< 4.30	4.90	4.70	> 100	4.80	7.20
CCN(CC)S(=O)(=O)c1ccc(Cn2nc(C(=O)Nc3ccncn3)c3ccccc32)cc1	6.50	6.40	6.40	4.60	< 4.30	< 4.30	< 4.30	< 4.30	4.50	< 4.40	> 100	4.40	6.80
CC1CN(S(=O)(=O)c2ccc(NC(=O)c3cc(C4CC4)nc4c3cnn4C(C)C)cc2)CC(C)O1 (stereo not given)	6.20	6.10	6.20	< 4.30	4.70	< 4.30	< 4.30	5.00	5.20	5.20	> 100	< 4.30	< 4.00
O=C(Nc1ccc(Br)c(Cl)c1)Nc1ccc2c(c1)OCO2	5.60	5.30	5.70	< 4.30	< 4.30	< 4.30	< 4.30	< 4.30	5.10	4.90	> 100	4.80	< 4.00
O=C(NCCc1ccccn1)C(c1cn[nH]c1)N1CCN(c2ccc(Cl)c(Cl)c2)CC1 (stereo not given)	7.00	6.80	6.90	< 4.30	5.60	< 4.30	4.70	< 4.30	4.90	< 4.40	> 100	4.50	6.90
COc1ccc(NS(=O)(=O)c2cc(-c3cc(C)n[nH]3)ccc2C)cc1OC	5.85	5.70	5.90	< 4.30	6.00	5.00	5.10	< 4.30	6.50	6.20	> 100	< 4.30	4.40
Cc1cccc(NS(=O)(=O)c2ccc3c(c2)C(=O)c2cc(S(=O)(=O)Nc4cccc(C)c4C)ccc2-3)c1C	6.40	6.40	6.40	4.50	< 4.30	< 4.30	< 4.30	< 4.30	5.10	5.00	> 100	< 4.30	< 4.00
Cc1ccc(CNC2CCN(C[C@@H]3Cn4c(=O)ccc5ccc(=O)n3c54)CC2)cc1F	5.90	5.90	6.00	< 4.30	< 4.30	< 4.30	< 4.30	< 4.30	5.80	5.70	> 100	4.80	< 4.00
